Drawing on patent US20230079819A1, “COMPOUNDS AND USES THEREOF” (Foghorn Therapeutics Inc., priority 2019, published 2023), this text covers IC50 for 19 molecules.

One experiment addresses T1, BRG-1 (Homo sapiens, UniProt P51532).
T1 construct: made in house; host or cells: High Five insect cells
The experiment is described as follows: ATPase catalytic activity of BRG-1, ADP-Glo in vitro biochemical assay. Conditions: ATPase catalytic activity, 30 nM BRG-1, 400 μM ATP, read-out: BRG1 IP50 (μM)*. (In general: ADP-Glo turns the ADP formed in a reaction into a luminescent signal.)

The next experiment deals with T2, BRM (Homo sapiens, UniProt P51531).
T2 construct: made in house; host or cells: High Five insect cells
The experiment is described as follows: ATPase catalytic activity of BRM, ADP-Glo in vitro biochemical assay. Conditions: ATPase catalytic activity, 30 nM BRM, 400 μM ATP, read-out: BRM IP50 (μM)*.

T1 sequence (P51532 whole entry): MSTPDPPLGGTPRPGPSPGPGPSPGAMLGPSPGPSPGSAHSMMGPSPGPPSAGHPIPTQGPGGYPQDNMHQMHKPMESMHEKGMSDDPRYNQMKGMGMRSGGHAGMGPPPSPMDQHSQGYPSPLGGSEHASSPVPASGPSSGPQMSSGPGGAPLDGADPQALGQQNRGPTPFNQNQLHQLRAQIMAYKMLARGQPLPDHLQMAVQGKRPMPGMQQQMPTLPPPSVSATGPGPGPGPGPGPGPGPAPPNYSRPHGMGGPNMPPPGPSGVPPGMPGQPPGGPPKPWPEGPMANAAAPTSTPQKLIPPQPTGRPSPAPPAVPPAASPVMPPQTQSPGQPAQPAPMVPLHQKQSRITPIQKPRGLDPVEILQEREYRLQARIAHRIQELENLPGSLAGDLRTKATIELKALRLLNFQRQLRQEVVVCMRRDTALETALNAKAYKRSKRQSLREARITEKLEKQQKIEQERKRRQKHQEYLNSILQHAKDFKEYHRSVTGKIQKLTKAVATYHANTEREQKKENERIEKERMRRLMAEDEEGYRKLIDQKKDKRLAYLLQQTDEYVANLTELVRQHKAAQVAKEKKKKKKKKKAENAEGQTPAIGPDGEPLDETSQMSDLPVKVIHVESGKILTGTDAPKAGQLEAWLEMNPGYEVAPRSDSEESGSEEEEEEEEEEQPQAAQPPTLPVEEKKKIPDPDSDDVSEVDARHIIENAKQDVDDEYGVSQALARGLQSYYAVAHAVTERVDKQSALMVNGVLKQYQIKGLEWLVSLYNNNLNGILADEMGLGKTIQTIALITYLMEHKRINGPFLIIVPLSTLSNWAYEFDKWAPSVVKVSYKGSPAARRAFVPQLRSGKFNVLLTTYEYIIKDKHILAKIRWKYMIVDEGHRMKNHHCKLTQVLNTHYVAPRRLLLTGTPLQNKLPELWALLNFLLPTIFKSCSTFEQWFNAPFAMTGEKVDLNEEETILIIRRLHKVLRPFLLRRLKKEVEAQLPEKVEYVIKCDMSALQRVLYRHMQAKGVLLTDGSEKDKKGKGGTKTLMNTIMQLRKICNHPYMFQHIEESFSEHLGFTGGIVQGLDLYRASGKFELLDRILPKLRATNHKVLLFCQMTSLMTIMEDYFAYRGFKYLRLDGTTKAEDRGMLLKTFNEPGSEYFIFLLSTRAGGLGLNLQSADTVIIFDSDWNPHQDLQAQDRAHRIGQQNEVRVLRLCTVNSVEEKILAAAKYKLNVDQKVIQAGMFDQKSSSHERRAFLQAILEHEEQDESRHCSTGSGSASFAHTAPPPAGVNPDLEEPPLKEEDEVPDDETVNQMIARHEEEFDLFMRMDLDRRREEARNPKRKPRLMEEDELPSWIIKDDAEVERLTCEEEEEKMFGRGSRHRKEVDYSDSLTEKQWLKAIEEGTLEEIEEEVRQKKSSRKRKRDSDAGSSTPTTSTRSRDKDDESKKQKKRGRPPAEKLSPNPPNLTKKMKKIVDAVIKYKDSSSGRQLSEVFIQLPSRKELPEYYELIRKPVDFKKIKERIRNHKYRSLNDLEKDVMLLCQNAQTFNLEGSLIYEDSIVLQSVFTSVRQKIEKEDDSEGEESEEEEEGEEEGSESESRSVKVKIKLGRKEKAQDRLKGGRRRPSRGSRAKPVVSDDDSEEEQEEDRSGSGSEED
T2 sequence (P51531 whole entry): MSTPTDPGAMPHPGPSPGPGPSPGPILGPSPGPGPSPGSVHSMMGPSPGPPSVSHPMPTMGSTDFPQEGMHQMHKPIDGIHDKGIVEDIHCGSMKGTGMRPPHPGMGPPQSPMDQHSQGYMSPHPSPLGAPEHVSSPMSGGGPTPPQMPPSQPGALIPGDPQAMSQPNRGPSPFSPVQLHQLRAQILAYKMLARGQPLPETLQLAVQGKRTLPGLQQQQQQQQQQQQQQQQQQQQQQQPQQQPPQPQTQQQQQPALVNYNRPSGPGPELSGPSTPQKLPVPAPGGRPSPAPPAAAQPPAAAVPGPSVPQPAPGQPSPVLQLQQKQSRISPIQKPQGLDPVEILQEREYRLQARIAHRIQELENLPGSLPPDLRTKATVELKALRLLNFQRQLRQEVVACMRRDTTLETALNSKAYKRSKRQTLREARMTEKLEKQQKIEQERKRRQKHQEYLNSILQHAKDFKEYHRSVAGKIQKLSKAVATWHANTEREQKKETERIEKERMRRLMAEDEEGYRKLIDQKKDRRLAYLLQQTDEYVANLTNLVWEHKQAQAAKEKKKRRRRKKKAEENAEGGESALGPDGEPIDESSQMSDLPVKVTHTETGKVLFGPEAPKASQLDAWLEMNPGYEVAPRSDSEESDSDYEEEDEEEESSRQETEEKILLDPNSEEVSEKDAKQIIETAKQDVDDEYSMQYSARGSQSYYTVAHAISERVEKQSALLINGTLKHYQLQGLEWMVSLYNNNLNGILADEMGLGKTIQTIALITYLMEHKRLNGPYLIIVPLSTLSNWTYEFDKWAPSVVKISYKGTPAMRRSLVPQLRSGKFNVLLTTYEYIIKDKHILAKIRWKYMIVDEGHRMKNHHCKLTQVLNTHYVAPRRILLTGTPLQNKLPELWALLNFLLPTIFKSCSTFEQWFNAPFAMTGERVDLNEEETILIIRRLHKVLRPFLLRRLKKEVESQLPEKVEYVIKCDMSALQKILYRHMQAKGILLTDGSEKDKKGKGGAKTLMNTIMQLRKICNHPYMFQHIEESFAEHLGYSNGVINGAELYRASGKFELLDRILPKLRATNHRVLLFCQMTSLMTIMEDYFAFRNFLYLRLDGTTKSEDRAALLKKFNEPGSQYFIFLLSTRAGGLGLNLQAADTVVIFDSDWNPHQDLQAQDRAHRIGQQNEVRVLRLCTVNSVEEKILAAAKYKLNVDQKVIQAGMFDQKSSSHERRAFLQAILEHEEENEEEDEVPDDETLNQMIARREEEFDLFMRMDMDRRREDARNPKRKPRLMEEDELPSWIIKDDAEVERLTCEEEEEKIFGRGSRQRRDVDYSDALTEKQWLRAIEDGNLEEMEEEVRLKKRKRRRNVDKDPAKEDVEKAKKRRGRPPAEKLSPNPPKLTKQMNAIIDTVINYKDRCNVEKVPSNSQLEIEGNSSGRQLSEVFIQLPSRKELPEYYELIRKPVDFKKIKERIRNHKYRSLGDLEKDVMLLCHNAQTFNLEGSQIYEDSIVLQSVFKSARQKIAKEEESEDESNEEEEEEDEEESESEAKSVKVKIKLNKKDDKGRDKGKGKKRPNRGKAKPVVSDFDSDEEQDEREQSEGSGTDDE

Take `CC(C)(C)C[C@H](NC(=O)c1ccn(S(C)(=O)=O)c1)C(=O)Nc1nc(-c2cccc(-c3ccncc3)c2)cs1` [Compound 76, (S)—N-(4,4-dimethyl-1-oxo-1-((4-(3-(pyridin-4-yl)phenyl)thiazol-2-yl)amino)pentan-2-yl)-1-(methylsulfonyl)-1H-pyrrole-3-carboxamide]: the IC50 on BRG-1 and on BRM was above 0.01 µM in each case.
For the molecule `CN(C)CCC(NC(=O)c1ccn(S(C)(=O)=O)c1)C(=O)Nc1nc(-c2cccc(-c3ccncc3)c2)cs1` (centres unmarked) [Compound 77, N-(4-(dimethylamino)-1-oxo-1-((4-(3-(pyridin-4-yl)phenyl)thiazol-2-yl)amino)butan-2-yl)-1-(methylsulfonyl)-1H-pyrrole-3-carboxamide], the IC50 on BRG-1 and on BRM was above 0.01 µM throughout.
Regarding `CN(C)CC[C@H](NC(=O)c1ccn(S(C)(=O)=O)c1)C(=O)Nc1nc(-c2cccc(-c3ccncc3)c2)cs1` [Compound 78, (S)—N-(4-(dimethylamino)-1-oxo-1-((4-(3-(pyridin-4-yl)phenyl)thiazol-2-yl)amino)butan-2-yl)-1-(methylsulfonyl)-1H-pyrrole-3-carboxamide], the IC50 at BRG-1 and at BRM was above 0.01 µM throughout.
In the case of `CN(C)CC[C@@H](NC(=O)c1ccn(S(C)(=O)=O)c1)C(=O)Nc1nc(-c2cccc(-c3ccncc3)c2)cs1` [Compound 79, (R)—N-(4-(dimethylamino)-1-oxo-1-((4-(3-(pyridin-4-yl)phenyl)thiazol-2-yl)amino)butan-2-yl)-1-(methylsulfonyl)-1H-pyrrole-3-carboxamide], the IC50 at BRG-1 and on BRM was above 0.1 µM in each case.
Turning to `Cc1cc(-c2cccc(-c3csc(NC(=O)CNC(=O)c4ccn(S(C)(=O)=O)c4)n3)c2)cc(C)n1` [Compound 81, N-(2-((4-(3-(2,6-dimethylpyridin-4-yl)phenyl)thiazol-2-yl)amino)-2-oxoethyl)-1-(methylsulfonyl)-1H-pyrrole-3-carboxamide], the IC50 on BRG-1 and at BRM was below 0.01 µM each time.
For the molecule `CS(=O)(=O)n1ccc(C(=O)NCC(=O)Nc2nc(-c3cccc(-c4ccnc(C(F)(F)F)c4)c3)cs2)c1` [Compound 82, 1-(methylsulfonyl)-N-(2-oxo-2-((4-(3-(2-(trifluoromethyl)pyridin-4-yl)phenyl)thiazol-2-yl)amino)ethyl)-1H-pyrrole-3-carboxamide], the IC50 on BRG-1 and on BRM was below 0.01 µM throughout.
Turning to `Cn1cc(-c2cccc(-c3csc(NC(=O)CNC(=O)c4ccn(C(C)(C)C)c4)n3)c2)cn1` [Compound 83, 1-(tert-butyl)-N-(2-((4-(3-(1-methyl-1H-pyrazol-4-yl)phenyl)thiazol-2-yl)amino)-2-oxoethyl)-1H-pyrrole-3-carboxamide], the IC50 at BRG-1 and at BRM was above 0.01 µM throughout.
As for `CC(C)(C)n1ccc(C(=O)NCC(=O)Nc2nc(-c3cccc(-c4ccncn4)c3)cs2)c1` [Compound 84, 1-(tert-butyl)-N-(2-oxo-2-((4-(3-(pyrimidin-4-yl)phenyl)thiazol-2-yl)amino)ethyl)-1H-pyrrole-3-carboxamide], the IC50 at BRG-1 was above 0.01 µM; at BRM, below 0.01 µM.
Consider `C[C@@H]1CN(c2cccc(-c3csc(NC(=O)CNC(=O)c4ccn(S(C)(=O)=O)c4)n3)c2)C[C@@H](C)O1` [Compound 85, N-(2-((4-(3-((2R, 6R)-2,6-dimethylmorpholino)phenyl)thiazol-2-yl)amino)-2-oxoethyl)-1-(methylsulfonyl)-1H-pyrrole-3-carboxamide], for which the IC50 on BRG-1 and on BRM was below 0.01 µM in each case.
Take `C[C@H]1CN(c2cccc(-c3csc(NC(=O)CNC(=O)c4ccn(S(C)(=O)=O)c4)n3)c2)C[C@H](C)O1` [Compound 86, N-(2-((4-(3-((2S, 6S)-2,6-dimethylmorpholino)phenyl)thiazol-2-yl)amino)-2-oxoethyl)-1-(methylsulfonyl)-1H-pyrrole-3-carboxamide]: the IC50 at BRG-1 and at BRM was below 0.01 µM throughout.
For `C[C@H]1CN(c2cccc(-c3csc(NC(=O)CNC(=O)c4ccn(S(C)(=O)=O)c4)n3)c2)CCO1` [Compound 87, (S)—N-(2-((4-(3-(2-methylmorpholino)phenyl)thiazol-2-yl)amino)-2-oxoethyl)-1-(methylsulfonyl)-1H-pyrrole-3-carboxamide], the IC50 at BRG-1 and on BRM was below 0.01 µM in each case.
Consider `C[C@@H]1CN(c2cccc(-c3csc(NC(=O)CNC(=O)c4ccn(S(C)(=O)=O)c4)n3)c2)CCO1` [Compound 88, (R)—N-(2-((4-(3-(2-methylmorpholino)phenyl)thiazol-2-yl)amino)-2-oxoethyl)-1-(methylsulfonyl)-1H-pyrrole-3-carboxamide], for which the IC50 at BRG-1 and at BRM was below 0.01 µM in each case.
On to `CC1(C)CN(c2cccc(-c3csc(NC(=O)CNC(=O)c4ccn(S(C)(=O)=O)c4)n3)c2)CCO1` [Compound 89, N-(2-((4-(3-(2,2-dimethylmorpholino)phenyl)thiazol-2-yl)amino)-2-oxoethyl)-1-(methylsulfonyl)-1H-pyrrole-3-carboxamide], for which the IC50 on BRG-1 and on BRM was above 0.01 µM throughout.
As for `C[C@@H]1CN(c2cccc(-c3csc(NC(=O)CNC(=O)c4ccn(C(C)(C)C)c4)n3)c2)C[C@H](C)O1` [Compound 90, 1-(tert-butyl)-N-(2-((4-(3-(cis-2,6-dimethylmorpholino)phenyl)thiazol-2-yl)amino)-2-oxoethyl)-1H-pyrrole-3-carboxamide], the IC50 at BRG-1 and at BRM was below 0.01 µM in each case.
Take `COCC1CCN(c2cccc(-c3csc(NC(=O)CNC(=O)c4ccn(S(C)(=O)=O)c4)n3)c2)CC1` [Compound 91, N-(2-((4-(3-(4-(methoxymethyl)piperidin-1-yl)phenyl)thiazol-2-yl)amino)-2-oxoethyl)-1-(methylsulfonyl)-1H-pyrrole-3-carboxamide]: the IC50 was above 0.1 µM on BRG-1 and above 0.01 µM on BRM.
For `COC[C@H]1CCCN(c2cccc(-c3csc(NC(=O)CNC(=O)c4ccn(S(C)(=O)=O)c4)n3)c2)C1` [Compound 92, (S)—N-(2-((4-(3-(3-(methoxymethyl)piperidin-1-yl)phenyl)thiazol-2-yl)amino)-2-oxoethyl)-1-(methylsulfonyl)-1H-pyrrole-3-carboxamide], in that order: above 0.01 µM and above 0.01 µM.
With `Cc1cn(-c2cccc(-c3csc(NC(=O)CNC(=O)c4ccn(S(C)(=O)=O)c4)n3)c2)cn1` [Compound 93, N-(2-((4-(3-(4-methyl-1H-imidazol-1-yl)phenyl)thiazol-2-yl)amino)-2-oxoethyl)-1-(methylsulfonyl)-1H-pyrrole-3-carboxamide], the IC50 on BRG-1 and on BRM was above 0.01 µM throughout.
`CS(=O)(=O)n1ccc(C(=O)NCC(=O)Nc2nc(-c3cccc(N4CCC(O)CC4)c3)cs2)c1` [Compound 94, N-(2-((4-(3-(4-hydroxypiperidin-1-yl)phenyl)thiazol-2-yl)amino)-2-oxoethyl)-1-(methylsulfonyl)-1H-pyrrole-3-carboxamide]: the IC50 at BRG-1 and on BRM was below 0.01 µM throughout.
For the molecule `COC1CCN(c2cccc(-c3csc(NC(=O)CNC(=O)c4ccn(S(C)(=O)=O)c4)n3)c2)CC1` [Compound 95, N-[2-[[4-[3-(4-methoxy-1-piperidyl)phenyl]thiazol-2-yl]amino]-2-oxo-ethyl]-1-methylsulfonyl-pyrrole-3-carboxamide], the IC50 on BRG-1 and on BRM was above 0.01 µM each time.
